Experimental data published in patent US20090258878A1, “TRIAZINE DERIVATIVE COMPOUND AND COMPOSITION FOR TREATING CANCER […]” (priority 2006, published 2009).
Read-outs that look alike come from different tables or passages of the source.

What was measured:
[1] = system: MCF-7 breast cancer cell line; details: for growth inhibition effect on cell (FIG. 1): 2 days
Experimental: 2×10^5 MCF-7 cells were respectively distributed into each 6 well plates and grown. Thereafter, Dan-BC1, Dan-BC2 and Dan-BC3 compounds were diluted to be dose concentration of 10, 50 and 100 μM, and after treating them into cancers for 2 days according to the concentration, they were compared by measuring the cell viability with those of drug-untreated group.

[2] = system: breast cancers naturally formed in female mouse transformed to form cancer (HCCR-1); details: for anticancer effect against breast cancer formed in transformed mouse in vivo / breast cancer after one administration: 100 μM; for anti-cancer effect on transformed animal model, rank order (FIG. 11) / formation of cancer again at second injection: 100 μM weekly; for breast cancer after one administration: transformed mouse with naturally formed breast cancer; for formation of cancer again at second injection: transformed mouse
Experimental: Anticancer effect of Dan-BC1, Dan-BC2 and Dan-BC3 according to the present invention was assessed using the mouse transformed with human proto-oncogene causing cancer which was over-expressed in mammal.
Since the cell line used for the transformed mouse has capacity for forming tumor, it forms a carcinoma such as palpable tumor when transplanted into mammal. Cell line used in the present experiment produces a large quantity of HCCR-1 protein by overexpressing human proto-oncogene (hereafter, HCCR-1), which protein interacts with D52 protein (GenBank Reg. No. NM003288) as reported as being related to cancer (Byrne, J. A. et al., Cancer Res., 55, 2896-2903 (1995); and Bryne, J. A. et al., Oncogene, 16, 873-881 (1998) reference), activates protein Kinases C and Telomerase, incapacitates the function of controlling cell cycle checkpoint, and transforms into malignant tumor though the course of lowering the expression of egr-1 gene.

MCF-7 tumor cells = details: for Height of breast cancer mass / Major Axis of breast cancer mass / Minor Axis of breast cancer mass: nude mouse; for in vivo anticancer effect regarding breast cancer formed in nude mouse: two administrations of 500 μM, vs negative control mass size
Experimental: Weekly administration of experiment compound was initiated 2 days after measurement of tumor size. The concentration of the first administration was 500 μM, respectively.

[3] = 1 week after First Administration, 500 μM
[4] = 1 day before First Administration
[5] = the day of First Administration, 500 μM

Compound	growth inhibition effect on cell (FIG. 1) ([1]; 10 μM)	growth inhibition effect on cell (FIG. 1) ([1]; 50 μM)	cells survived compared with cells without administration ([1]; 100 μM, 12 hours)	cells survived compared with cells without administration ([1]; 100 μM, 24 hours)	cells survived compared with cells without administration ([1]; 100 μM, 36 hours)	growth inhibition effect on cell (FIG. 1) ([1]; 100 μM)	cells survived compared with cells without administration ([1]; 100 μM, 48 hours)	anticancer effect against breast cancer formed in transformed mouse in vivo [2]	anti-cancer effect on transformed animal model, rank order (FIG. 11) [2]	breast cancer after one administration [2]	extinction effect on breast cancer cell in nude mouse, rank order (FIG. 7) (MCF-7 tumor cells; 500 μM)	Height of breast cancer mass (MCF-7 tumor cells; [3])	Major Axis of breast cancer mass (MCF-7 tumor cells; [3])	Minor Axis of breast cancer mass (MCF-7 tumor cells; [3])	Height of breast cancer mass (MCF-7 tumor cells; [4])	Major Axis of breast cancer mass (MCF-7 tumor cells; [4])	Minor Axis of breast cancer mass (MCF-7 tumor cells; [4])	Height of breast cancer mass (MCF-7 tumor cells; [5])	Major Axis of breast cancer mass (MCF-7 tumor cells; [5])	Minor Axis of breast cancer mass (MCF-7 tumor cells; [5])	further results
C=CCNc1nc(NCCCC)nc(NCc2ccc(C(=O)NCCOCCOCCNC(=O)c3ccccc3)cc2)n1 [Dan-BC1]	weak growth inhibition effect on cell	no significant growth inhibition effect on cell	about 68%	about 37%	about 27%	an extinct effect on cell was apparent to the naked eye	all cells reached extinction	strong anticancer effect	the most superior	extinction of breast cancer was resulted even with administration of only once	high in case of Dan-BC1, Dan-BC3 compound, and Dan-BC2 compound in that order	2 mm	10 mm	8 mm	2 mm	4 mm	2 mm	5 mm	12 mm	10 mm	in vivo anticancer effect regarding breast cancer formed in nude mouse (MCF-7 tumor cells): strong in vivo anticancer effect
CCCCNc1nc(NCc2ccncc2)nc(NCc2ccc(C(=O)NCCOCCOCCNC(=O)c3ccccc3)cc2)n1 [Dan-BC2]	weak growth inhibition effect on cell	no significant growth inhibition effect on cell	about 75%	about 49%	about 33%	an extinct effect on cell was apparent to the naked eye	20%	showed anticancer effect	as an order of the next Dan-BC3, and Dan-BC2	breast cancer became extinct	high in case of Dan-BC1, Dan-BC3 compound, and Dan-BC2 compound in that order	3 mm	15 mm	10 mm	2 mm	4 mm	2 mm	5 mm	12 mm	10 mm	formation of cancer again at second injection [2]: formation of cancer was induced again at the time of the 2nd injection; in vivo anticancer effect regarding breast cancer formed in nude mouse (MCF-7 tumor cells): strong in vivo anticancer effect
CCCCNc1nc(NCc2ccc(C(=O)NCCOCCOCCNC(=O)c3ccccc3)cc2)nc(NC(CC)CC)n1 [Dan-BC3]	weak growth inhibition effect on cell	no significant growth inhibition effect on cell	about 60%	about 37%	about 7%	an extinct effect on cell was apparent to the naked eye	all cells reached extinct	showed anticancer effect	as an order of the next Dan-BC3, and Dan-BC2	breast cancer became extinct	high in case of Dan-BC1, Dan-BC3 compound, and Dan-BC2 compound in that order	2 mm	15 mm	10 mm	2 mm	4 mm	2 mm	5 mm	12 mm	7 mm	formation of cancer again at second injection [2]: formation of cancer was derived again at the time of the second injection; in vivo anticancer effect regarding breast cancer formed in nude mouse (MCF-7 tumor cells): strong in vivo anticancer effect
